How the values were obtained:
[1] = Emanation rate of transfluthrin from dispensing device 200 with substrate 250 in a sealed chamber over 75 days (Example 2, FIGS. 15A-15C); assay type: physicochemical; details: for constant emanation rate: dose about 2400 mg
Protocol: In connection with the examples herein, the emanation rates and the amount of active agent, e.g., an amount of transfluthrin, remaining in the substrate of the examples herein were measured by analyzing the weight loss of a particular substrate over time. More particularly, the amount of active agent remaining within a particular substrate may be calculated by first measuring the substrate 250 prior to dosing the substrate 250 with the active agent (or volatile material) and then subtracting that value from the weight of the substrate 250 at any given time after dosing. For example, with reference to Example 1, an initial weight of the substrate 250 was measured, the substrate 250 was dosed with an active agent (i.e., transfluthrin or metofluthrin), and a weight of the substrate 250 was measured multiple times after initial dosage and after emanation of the active agent into the ambient environment. The initial weight of the substrate 250 was then subtracted from a weight of the substrate 250 after initial dosage and this value indicated the remaining active agent within the substrate 250. Further, after determining the remaining active agent within the substrate 250, the amount of active agent (or volatile material) emanated to the ambient environment may also be calculated by subtracting the amount of active agent remaining in the substrate 250 from the initial dosage amount of the active agent. All weight measurements can be performed on an analytical scale. Further, the examples herein were conducted in a closed environment, such as a sealed chamber, having a controlled airflow rate.
In this example, the substrate 250 includes three layers, such as the first layer 252, the second layer 254, and the third layer 256. Further, in this embodiment, the first layer 252 is a woven material having a honeycomb weave pattern, a pore size of 3 mm and a thickness of 0.3 mm; the second layer 254 is a fibrous material constructed from polyester and the substrate 250 has a surface density of about 340 g/m^2; and the third layer 256 is a woven material having a honeycomb weave pattern, a pore size of 3 mm and a thickness of 0.3 mm. The substrate 250 was dosed with about 2400 mg of transfluthrin and the concentration of the transfluthrin within the substrate 250 at different locations in a sealed chamber was measured over a period of 75 days. During this trial, the substrate 250 was exposed to an airflow of about 4.8 meters/minute.

[2] = Emanation (release) rate of active agent from three-layer substrate 250 by weight loss over 40 days (Example 1, FIG. 13); assay type: physicochemical; details: substrate 250, approx. 30 cm^2, dosed with approx. 75 mg active agent
[3] = first location within sealed chamber (FIG. 15A)
[4] = second location within sealed chamber (FIG. 15B)
[5] = third location within sealed chamber (FIG. 15C)

SMILES	period of emanation at constant, linear rate, from linear regression lines ([1]; extrapolated from the linear regression lines of FIGS. 15A-15C)	period of constant emanation [1, 3]	constant emanation rate [1, 3]	period of constant emanation [1, 4]	constant emanation rate [1, 4]	period of constant emanation [1, 5]	constant emanation rate [1, 5]	constant linear release (emanation) rate [2]	time over which the substrate emanated the volatile material at constant linear rate [2]
CC1(C)[C@H](C=C(Cl)Cl)[C@H]1C(=O)OCc1c(F)c(F)cc(F)c1F [transfluthrin]	exceeding one year	greater than 70 days	about 4 mg/day	greater than 70 days	about 6 mg/day	greater than 70 days	about 4 mg/day	about 1.5 mg/day	approximately 36 days
C/C=C/C1C(C(=O)OCc2c(F)c(F)c(COC)c(F)c2F)C1(C)C (centres unmarked) [metofluthrin]								about 1.9 mg/day	20 days

Reference: patent US20240138404A1, “DISPENSER AND METHOD OF USE THEREOF” (S.C. JOHNSON & SON, INC., priority 2019, published 2024)
